Data on one compound can be found in patent EP4818187A1, “COMPOUND AND USE THEREOF” (Ganzhou Hemay Pharmaceutical, Co., Ltd, priority 2023, dated 2025).

Common to all, as to assay type: cell-based
Assay [1] deals with BxPC-3 (human pancreatic cancer in situ). Put plainly: In vitro inhibitory effect against human tumor cells (MTT or SRB). To be noted: BXPC-3, 72 h, BxPC-3, test method printed MTT (head: SRB), 3 days.
Assay [2] relates to Fadu (human pharyngeal squamous cell carcinoma). As to the kind of experiment: In vitro inhibitory effect against human tumor cells (MTT). The note with it: 72 h, 3 days.
Assay [3] relates to SK-OV-3 (human ovarian cancer). Described as above. To be noted: SK-OV-3, 72 h, SK-OV-3, MTT, 3 days.
Assay [4] relates to NCI-H1975 (human non-small cell lung cancer). Described as above. The note with it: NCI-H1975, 72 h, 3 days.
Assay [5] relates to HCT116 (human colorectal cancer). The assay is described as above. The note with it: HCT-116, 72 h, 3 days.
Assay [6] relates to NCI-N87 (human gastric cancer cell). Described as above. The note with it: NCI-N87, 72 h, 3 days.
[7] abbreviates: With addition of βGU (1 µg/well).

As to `CC[C@H](C)[C@@H]([C@@H](CC(=O)N1CCC[C@H]1[C@H](OC)[C@@H](C)C(=O)N[C@H](C)[C@@H](OCc1ccc(O[C@@H]2O[C@H](C(=O)[O-])[C@@H](O)[C@H](O)[C@H]2O)cc1OCc1cn(CCCCCC(=O)Nc2ccc(-c3ccc(/N=N/c4ccc5c(S(=O)(=O)[O-])cc(S(=O)(=O)[O-])c(N)c5c4O)c(C)c3)cc2C)nn1)c1ccccc1)OC)N(C)C(=O)[C@@H](NC(=O)[C@H](C(C)C)N(C)C)C(C)C.[Na+].[Na+].[Na+]` [Example compound 2], the IC50 in assay [1] (setting [7]) is 3.9 nM; in assay [1] (βGU-free) it was 43 nM; in assay [2] (setting [7]), 2.7 nM; in assay [2] (βGU-free), 38 nM; in assay [3] (setting [7]), 6.1 nM; in assay [3] (βGU-free), 211 nM. In addition, the IC50 in assay [4] (setting [7]) was determined as 4.3 nM; in assay [4] (βGU-free), 114 nM; in assay [5] (setting [7]) it was 6.1 nM; in assay [5] (βGU-free) it was 143 nM; in assay [6] (setting [7]), 5.6 nM; in assay [6] (βGU-free) it was 81 nM.
